# Experimental data: PubChem BioAssay AID1963827 (Molecular Pharmacology Branch, DTP, NCI, 2024)
# Tested on: 994946-033-R-J1-PDC complex spheroid viability
# Test: Anticancer human tumor 994946-033-R-J1-PDC patient-derived melanoma cell line growth inhibition [POLQ]
# Details: for IC50: curve of first compound; for viability, T/C: stronger effect = lower value
# Summary of the method: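 Three-cell-type spheroids modelling solid tumor plus stroma served as the readout system; POL inhibitors were tested individually and in combination, concentration ranges set by clinical Cmax where known.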
# [1] = second compound 0.0316 µM, first compound 0.0316 µM
# [2] = second compound 0.0316 µM, first compound 0.1 µM
# [3] = second compound 0.0316 µM, first compound 0.316 µM
# [4] = second compound 0.0316 µM, first compound 1 µM
# [5] = second compound 0.1 µM, first compound 0.0316 µM
# [6] = second compound 0.1 µM, first compound 0.1 µM
# [7] = second compound 0.1 µM, first compound 0.316 µM
# [8] = second compound 0.1 µM, first compound 1 µM
# [9] = second compound 0.316 µM, first compound 0.0316 µM
# [10] = second compound 0.316 µM, first compound 0.1 µM
# [11] = second compound 0.316 µM, first compound 0.316 µM
# [12] = second compound 0.316 µM, first compound 1 µM
# [13] = second compound 1 µM, first compound 0.0316 µM
# [14] = second compound 1 µM, first compound 0.1 µM
# [15] = second compound 1 µM, first compound 0.316 µM
# [16] = second compound 1 µM, first compound 1 µM
# [17] = second compound 3.16 µM, first compound 0.0316 µM
# [18] = second compound 3.16 µM, first compound 0.1 µM
# [19] = second compound 3.16 µM, first compound 0.316 µM
# [20] = second compound 3.16 µM, first compound 1 µM
# [21] = second compound 10 µM, first compound 0.0316 µM
# [22] = second compound 10 µM, first compound 0.1 µM
# [23] = second compound 10 µM, first compound 0.316 µM
# [24] = second compound 10 µM, first compound 1 µM
# [25] = second compound 0.0316 µM, first compound 3.16 µM
# [26] = second compound 0.0316 µM, first compound 10 µM
# [27] = second compound 0.1 µM, first compound 3.16 µM
# [28] = second compound 0.1 µM, first compound 10 µM
# [29] = second compound 0.316 µM, first compound 3.16 µM
# [30] = second compound 0.316 µM, first compound 10 µM
# [31] = second compound 1 µM, first compound 3.16 µM
# [32] = second compound 1 µM, first compound 10 µM
# [33] = second compound 3.16 µM, first compound 3.16 µM
# [34] = second compound 3.16 µM, first compound 10 µM
# [35] = second compound 10 µM, first compound 3.16 µM
# [36] = second compound 10 µM, first compound 10 µM
# 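Note: spheroids exposed to drugs for 7 days.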
# 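Throughout, for viability, T/C: 100% = DMSO vehicle treated spheroids.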
compound,measurement,setting,value
C=CCn1c(=O)c2cnc(Nc3ccc(N4CCN(C)CC4)cc3)nc2n1-c1cccc(C(C)(C)O)n1 + Nc1ccc(C#CCN(C(=O)Cc2ncc(C(F)(F)F)cc2C(F)(F)F)c2ccc(F)cc2)nn1,IC50,second compound 0.0316 µM,837 nM
same,IC50,second compound 0.1 µM,444 nM
same,IC50,second compound 0.316 µM,397 nM
same,IC50,second compound 1 µM,780 nM
same,IC50,second compound 3.16 µM,712 nM
same,IC50,second compound 10 µM,643 nM
same,"viability, T/C","second compound 0.0316 µM, first compound 0.00316 µM",70.3%
same,"viability, T/C","second compound 0.0316 µM, first compound 0.01 µM",122%
same,"viability, T/C",[1],80%
same,"viability, T/C",[2],95.6%
same,"viability, T/C",[3],91.8%
same,"viability, T/C",[4],42.4%
same,"viability, T/C","second compound 0.1 µM, first compound 0.00316 µM",81%
same,"viability, T/C","second compound 0.1 µM, first compound 0.01 µM",107%
same,"viability, T/C",[5],97.8%
same,"viability, T/C",[6],103%
same,"viability, T/C",[7],59.2%
same,"viability, T/C",[8],28%
same,"viability, T/C","second compound 0.316 µM, first compound 0.00316 µM",101%
same,"viability, T/C","second compound 0.316 µM, first compound 0.01 µM",124%
same,"viability, T/C",[9],105%
same,"viability, T/C",[10],81.7%
same,"viability, T/C",[11],60.2%
same,"viability, T/C",[12],20.6%
same,"viability, T/C","second compound 1 µM, first compound 0.00316 µM",123%
same,"viability, T/C","second compound 1 µM, first compound 0.01 µM",100%
same,"viability, T/C",[13],147%
same,"viability, T/C",[14],109%
same,"viability, T/C",[15],100%
same,"viability, T/C",[16],36.2%
same,"viability, T/C","second compound 3.16 µM, first compound 0.00316 µM",109%
same,"viability, T/C","second compound 3.16 µM, first compound 0.01 µM",105%
same,"viability, T/C",[17],120%
same,"viability, T/C",[18],85%
same,"viability, T/C",[19],84.9%
same,"viability, T/C",[20],36.4%
same,"viability, T/C","second compound 10 µM, first compound 0.00316 µM",106%
same,"viability, T/C","second compound 10 µM, first compound 0.01 µM",82.5%
same,"viability, T/C",[21],94.8%
same,"viability, T/C",[22],95.4%
same,"viability, T/C",[23],67.4%
same,"viability, T/C",[24],39.1%
Nc1ccn(C2OC(CO)C(O)C2(F)F)c(=O)n1 (stereo unspecified) + COC1C(OC(N)=O)C(O)C(Oc2ccc3c(O)c(NC(=O)c4ccc(O)c(CC=C(C)C)c4)c(=O)oc3c2C)OC1(C)C,IC50,second compound 0.0316 µM,< 31.6 nM
same,IC50,second compound 0.1 µM,< 31.6 nM
same,IC50,second compound 0.316 µM,< 31.6 nM
same,IC50,second compound 1 µM,< 31.6 nM
same,IC50,second compound 3.16 µM,35.4 nM
same,IC50,second compound 10 µM,< 31.6 nM
same,"viability, T/C",[1],24.4%
same,"viability, T/C",[2],9.96%
same,"viability, T/C",[3],7.61%
same,"viability, T/C",[4],7.06%
same,"viability, T/C",[25],5.98%
same,"viability, T/C",[26],1.31%
same,"viability, T/C",[5],30.7%
same,"viability, T/C",[6],9.93%
same,"viability, T/C",[7],5.26%
same,"viability, T/C",[8],7.92%
same,"viability, T/C",[27],7.09%
same,"viability, T/C",[28],2.72%
same,"viability, T/C",[9],26.8%
same,"viability, T/C",[10],7.23%
same,"viability, T/C",[11],6.54%
same,"viability, T/C",[12],6.27%
same,"viability, T/C",[29],6.01%
same,"viability, T/C",[30],3.92%
same,"viability, T/C",[13],28.8%
same,"viability, T/C",[14],4.66%
same,"viability, T/C",[15],7.79%
same,"viability, T/C",[16],8.09%
same,"viability, T/C",[31],5.28%
same,"viability, T/C",[32],2.12%
same,"viability, T/C",[17],54.6%
same,"viability, T/C",[18],7.74%
same,"viability, T/C",[19],6.32%
same,"viability, T/C",[20],6%
same,"viability, T/C",[33],4.45%
same,"viability, T/C",[34],1.73%
same,"viability, T/C",[21],19.9%
same,"viability, T/C",[22],7.37%
same,"viability, T/C",[23],6.97%
same,"viability, T/C",[24],6.33%
same,"viability, T/C",[35],4.89%
same,"viability, T/C",[36],2.82%
C#Cc1c(F)ccc2cc(O)cc(-c3ncc4c(N5CC6CCC(C5)N6)nc(OCC56CCCN5CC(F)C6)nc4c3F)c12 (stereo unspecified) + COC1C(OC(N)=O)C(O)C(Oc2ccc3c(O)c(NC(=O)c4ccc(O)c(CC=C(C)C)c4)c(=O)oc3c2C)OC1(C)C,IC50,second compound 0.0316 µM,5060 nM
same,IC50,second compound 0.1 µM,5480 nM
same,IC50,second compound 0.316 µM,4010 nM
same,IC50,second compound 1 µM,5890 nM
same,IC50,second compound 3.16 µM,4140 nM
same,IC50,second compound 10 µM,5330 nM
same,"viability, T/C",[1],116%
same,"viability, T/C",[2],121%
same,"viability, T/C",[3],87.2%
same,"viability, T/C",[4],139%
same,"viability, T/C",[25],76.4%
same,"viability, T/C",[26],11.8%
same,"viability, T/C",[5],107%
same,"viability, T/C",[6],98.7%
same,"viability, T/C",[7],78.8%
same,"viability, T/C",[8],110%
same,"viability, T/C",[27],82.7%
same,"viability, T/C",[28],14.3%
same,"viability, T/C",[9],106%
same,"viability, T/C",[10],99.7%
same,"viability, T/C",[11],96.2%
same,"viability, T/C",[12],84.7%
same,"viability, T/C",[29],61%
same,"viability, T/C",[30],10.2%
same,"viability, T/C",[13],77.9%
same,"viability, T/C",[14],114%
same,"viability, T/C",[15],81.7%
same,"viability, T/C",[16],71.5%
same,"viability, T/C",[31],82.5%
same,"viability, T/C",[32],26.6%
same,"viability, T/C",[17],98.2%
same,"viability, T/C",[18],92.7%
same,"viability, T/C",[19],105%
same,"viability, T/C",[20],94.7%
same,"viability, T/C",[33],62.3%
same,"viability, T/C",[34],9.63%
same,"viability, T/C",[21],94.8%
same,"viability, T/C",[22],93.2%
same,"viability, T/C",[23],65.9%
same,"viability, T/C",[24],92%
same,"viability, T/C",[35],86.3%
same,"viability, T/C",[36],6.26%
